Data published in patent US6455522B1, “Cyclic sulfonamide derivatives as metalloproteinase inhibitors” (Bristol-Myers Squibb Pharma Company, priority 1998, dated 2002).

Test system: cartilage degradation
Assay: Acute Cartilage Degradation Rat Model
Assay type: in vivo
Conditions: rats, after compound administration
Text: A novel in vivo model of acute cartilage degradation in rats has been characterized as a method to determine the proteoglycan content in the synovial fluid after the induction of cartilage degradation.

`COc1ccc2c(c1)c(CC(=O)O)c(C)n2C(=O)c1ccc(Cl)cc1` [Indomethacin] was tested, and the “ability to inhibit the demonstration of cartilage degradation, as measured by increased proteoglycan content in the synovial fluid” value was “inactive”.
